Measured values published in the supplement of paper PMC10307832.

Tests used:
Assay in all cases: relative viability (nuclei count vs DMSO), 5 days (fraction); higher = more cells survive
[1] = system: LXF-289
In short: (§1)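 Lung cancer cell lines were seeded in 1536-well plates and dosed by pin tool the next day, with either a single drug or a fixed anchor-drug dose combined with five library-drug doses (not always all listed) spaced in √10 steps. Five days later, one step fixed the cells and stained their nuclei (final 0.05% Triton X-100, 1% formaldehyde, 1 ug/ml Hoechst), and nuclei were counted on 4× images. Relative viability is the nuclei count in treated wells divided by the count in vehicle wells, and each value is the median of duplicate plates.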

[2] = system: NCI-H1915
In short: as §1

[3] = system: NCI-H1944
In short: as §1

[4] = system: NCI-H441
In short: as §1

[5] = system: NCI-H1755
In short: as §1

[6] = system: LU99A
In short: as §1

[7] = system: PC-3 [JPC-3]
In short: as §1

[8] = system: NCI-H650
In short: as §1

[9] = system: BEN
In short: as §1

[10] = system: NCI-H1793
In short: as §1

[11] = system: LCLC-97TM1
In short: as §1

[12] = system: LOU-NH91
In short: as §1

[13] = system: NCI-H460
In short: as §1

[14] = system: SK-LU-1
In short: as §1

[15] = system: NCI-H2126
In short: as §1

[16] = system: NCI-H1666
In short: as §1

[17] = system: A-427
In short: as §1

[18] = system: NCI-H2023
In short: as §1

[19] = system: NCI-H23
In short: as §1

[20] = system: NCI-H322M
In short: as §1

[21] = system: HARA
In short: as §1

[22] = system: NCI-H1395
In short: as §1

O=c1[nH]c2ccccc2n1C1CCN(CCCC(c2ccc(F)cc2)c2ccc(F)cc2)CC1 [Pimozide] + C[C@]1(O)C[C@@H](c2nc(-c3ccc4ccc(-c5ccccc5)nc4c3)c3c(N)nccn32)C1 [Linsitinib] (partner 1 µM)
relative viability ([1]; first compound 0.08 µM): 0.928 | relative viability ([1]; first compound 0.253 µM): 0.902 | relative viability ([1]; first compound 0.8 µM): 0.964 | relative viability ([1]; first compound 2.53 µM): 0.946 | relative viability ([1]; first compound 8 µM): 0.886 | relative viability ([2]; first compound 0.08 µM): 1.09 | relative viability ([2]; first compound 0.253 µM): 1.06 | relative viability ([2]; first compound 0.8 µM): 0.921 | relative viability ([2]; first compound 2.53 µM): 1.09 | relative viability ([2]; first compound 8 µM): 1.1 | relative viability ([3]; first compound 0.08 µM): 1.02 | relative viability ([3]; first compound 0.253 µM): 1.07 | relative viability ([3]; first compound 0.8 µM): 1.05 | relative viability ([3]; first compound 2.53 µM): 1.3 | relative viability ([3]; first compound 8 µM): 1.22 | relative viability ([4]; first compound 0.08 µM): 0.496 | relative viability ([4]; first compound 0.253 µM): 0.53 | relative viability ([4]; first compound 0.8 µM): 0.752 | relative viability ([4]; first compound 2.53 µM): 0.483 | relative viability ([4]; first compound 8 µM): 0.389 | relative viability ([5]; first compound 0.08 µM): 0.94 | relative viability ([5]; first compound 0.253 µM): 1.02 | relative viability ([5]; first compound 0.8 µM): 0.97 | relative viability ([5]; first compound 2.53 µM): 0.939 | relative viability ([5]; first compound 8 µM): 0.845 | relative viability ([6]; first compound 0.08 µM): 0.544 | relative viability ([6]; first compound 0.253 µM): 0.409 | relative viability ([6]; first compound 0.8 µM): 0.514 | relative viability ([6]; first compound 2.53 µM): 0.596 | relative viability ([6]; first compound 8 µM): 0.504 | relative viability ([7]; first compound 0.253 µM): 0.985 | relative viability ([7]; first compound 0.8 µM): 0.896 | relative viability ([7]; first compound 2.53 µM): 0.983 | relative viability ([7]; first compound 8 µM): 0.883 | relative viability ([8]; first compound 0.08 µM): 0.842 | relative viability ([8]; first compound 0.253 µM): 0.792 | relative viability ([8]; first compound 0.8 µM): 0.911 | relative viability ([8]; first compound 2.53 µM): 0.791 | relative viability ([8]; first compound 8 µM): 0.847 | relative viability ([9]; first compound 0.08 µM): 1.07 | relative viability ([9]; first compound 0.253 µM): 1.02 | relative viability ([9]; first compound 0.8 µM): 0.856 | relative viability ([9]; first compound 2.53 µM): 0.88 | relative viability ([9]; first compound 8 µM): 0.892 | relative viability ([10]; first compound 0.08 µM): 0.871 | relative viability ([10]; first compound 0.253 µM): 0.612 | relative viability ([10]; first compound 0.8 µM): 0.861 | relative viability ([10]; first compound 2.53 µM): 0.88 | relative viability ([10]; first compound 8 µM): 0.831 | relative viability ([11]; first compound 0.08 µM): 0.179 | relative viability ([11]; first compound 0.253 µM): 0.166 | relative viability ([11]; first compound 0.8 µM): 0.171 | relative viability ([11]; first compound 2.53 µM): 0.169 | relative viability ([11]; first compound 8 µM): 0.146 | relative viability ([12]; first compound 0.08 µM): 0.488 | relative viability ([12]; first compound 0.253 µM): 0.97 | relative viability ([12]; first compound 0.8 µM): 0.929 | relative viability ([12]; first compound 2.53 µM): 1.1 | relative viability ([12]; first compound 8 µM): 0.959 | relative viability ([13]; first compound 0.08 µM): 0.964 | relative viability ([13]; first compound 0.253 µM): 0.725 | relative viability ([13]; first compound 0.8 µM): 0.707 | relative viability ([13]; first compound 2.53 µM): 0.727 | relative viability ([13]; first compound 8 µM): 0.649 | relative viability ([14]; first compound 0.08 µM): 1.11 | relative viability ([14]; first compound 0.253 µM): 1.12 | relative viability ([14]; first compound 0.8 µM): 0.902 | relative viability ([14]; first compound 2.53 µM): 0.732 | relative viability ([14]; first compound 8 µM): 0.851 | relative viability ([15]; first compound 0.08 µM): 0.747 | relative viability ([15]; first compound 0.253 µM): 0.662 | relative viability ([15]; first compound 0.8 µM): 0.713 | relative viability ([15]; first compound 2.53 µM): 0.74 | relative viability ([15]; first compound 8 µM): 0.774 | relative viability ([16]; first compound 0.08 µM): 0.786 | relative viability ([16]; first compound 0.253 µM): 0.723 | relative viability ([16]; first compound 0.8 µM): 0.711 | relative viability ([16]; first compound 2.53 µM): 0.73 | relative viability ([16]; first compound 8 µM): 0.635 | relative viability ([17]; first compound 0.08 µM): 0.985 | relative viability ([17]; first compound 0.253 µM): 1.14 | relative viability ([17]; first compound 0.8 µM): 1.13 | relative viability ([17]; first compound 2.53 µM): 1.15 | relative viability ([17]; first compound 8 µM): 1.08 | relative viability ([18]; first compound 0.08 µM): 0.613 | relative viability ([18]; first compound 0.253 µM): 0.654 | relative viability ([18]; first compound 0.8 µM): 0.61 | relative viability ([18]; first compound 2.53 µM): 0.667 | relative viability ([18]; first compound 8 µM): 0.443 | relative viability ([19]; first compound 0.08 µM): 0.609 | relative viability ([19]; first compound 0.253 µM): 0.577 | relative viability ([19]; first compound 0.8 µM): 0.49 | relative viability ([19]; first compound 2.53 µM): 0.553 | relative viability ([19]; first compound 8 µM): 0.513 | relative viability ([20]; first compound 0.253 µM): 0.875 | relative viability ([20]; first compound 0.8 µM): 0.79 | relative viability ([20]; first compound 2.53 µM): 0.834 | relative viability ([20]; first compound 8 µM): 0.971 | relative viability ([21]; first compound 0.08 µM): 0.944 | relative viability ([21]; first compound 0.253 µM): 0.981 | relative viability ([21]; first compound 0.8 µM): 0.823 | relative viability ([21]; first compound 2.53 µM): 0.92 | relative viability ([21]; first compound 8 µM): 0.748 | relative viability ([22]; first compound 0.08 µM): 1.12 | relative viability ([22]; first compound 0.253 µM): 1.07 | relative viability ([22]; first compound 0.8 µM): 1.07 | relative viability ([22]; first compound 2.53 µM): 1.35 | relative viability ([22]; first compound 8 µM): 1.09
